Laboratory results taken from article PMC11882969 (Nature Communications, 2025).
“And” between values parts separate entries of the source, which are not always exact repeats. Identical values can stand only once.

Assays:
CB1 (rCB1) = CB1 (rCB1) (Rattus norvegicus, UniProt P20272); test: Radioligand competition binding, [3H]-CP-55,940, rat brain membranes
hCB1 = hCB1 (Homo sapiens, UniProt P21554); test: bioSensAll ebBRET signaling profiling, hCB1; format: cell-based; set-up: host or cells: HEK293SL cells, transient PEI transfection; conditions: for Gi1 hCB1 response: Gi1 biosensor; for Gi1 hCB1 / GoB hCB1: single replicate values, FigS6a
Sequence of hCB1 (P21554 whole entry): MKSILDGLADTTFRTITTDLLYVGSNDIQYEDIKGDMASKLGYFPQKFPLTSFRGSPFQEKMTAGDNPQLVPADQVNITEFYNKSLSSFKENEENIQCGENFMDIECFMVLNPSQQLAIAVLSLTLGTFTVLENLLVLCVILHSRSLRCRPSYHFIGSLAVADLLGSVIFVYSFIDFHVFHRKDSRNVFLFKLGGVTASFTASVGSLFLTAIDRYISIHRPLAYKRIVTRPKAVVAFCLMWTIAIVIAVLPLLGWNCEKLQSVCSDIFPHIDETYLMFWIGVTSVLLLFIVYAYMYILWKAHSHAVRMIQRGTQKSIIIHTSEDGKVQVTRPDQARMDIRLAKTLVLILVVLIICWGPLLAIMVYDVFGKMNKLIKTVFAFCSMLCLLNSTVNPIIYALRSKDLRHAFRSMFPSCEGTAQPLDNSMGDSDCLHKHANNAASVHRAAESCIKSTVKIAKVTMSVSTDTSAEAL

Sequence of CB1 (rCB1) (P20272 whole entry): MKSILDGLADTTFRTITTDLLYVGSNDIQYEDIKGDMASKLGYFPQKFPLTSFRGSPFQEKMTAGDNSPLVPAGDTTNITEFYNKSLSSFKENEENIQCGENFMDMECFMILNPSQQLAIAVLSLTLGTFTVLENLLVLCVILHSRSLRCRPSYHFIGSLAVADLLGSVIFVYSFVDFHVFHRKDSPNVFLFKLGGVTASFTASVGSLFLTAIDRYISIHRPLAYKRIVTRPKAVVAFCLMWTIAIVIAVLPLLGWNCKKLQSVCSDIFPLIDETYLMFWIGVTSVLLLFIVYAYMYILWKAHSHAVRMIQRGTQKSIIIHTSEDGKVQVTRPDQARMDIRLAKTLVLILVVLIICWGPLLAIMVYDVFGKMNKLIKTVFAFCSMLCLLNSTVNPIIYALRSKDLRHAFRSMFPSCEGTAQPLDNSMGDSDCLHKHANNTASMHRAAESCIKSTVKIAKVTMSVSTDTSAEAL

Cc1cc(C(=O)N(C)C(c2ccccc2)c2ccco2)nn1-c1cccc(C(F)(F)F)c1 (centres unmarked) [‘1082]
pKi [95% CI] (CB1 (rCB1); rCB1): 6.1 [5.8 – 6.3] | Ki (CB1 (rCB1); read-out: Ki [95% CI], rCB1, [3H]-CP-55,940): 850 nM | Gi1 hCB1 response (hCB1; Log [Compound] (M) -4.22186): -35.0608 | Gi1 hCB1 response (hCB1; Log [Compound] (M) -4.63927): -33.606 | Gi1 hCB1 response (hCB1; Log [Compound] (M) -5.05788): 18.2518 | Gi1 hCB1 response (hCB1; Log [Compound] (M) -5.47381): -3.66 | Gi1 hCB1 response (hCB1; Log [Compound] (M) -5.89285): 5.159 | Gi1 hCB1 response (hCB1; Log [Compound] (M) -6.31878): -15.9695 | Gi1 hCB1 response (hCB1; Log [Compound] (M) -6.72585): 12.7459 | Gi1 hCB1 response (hCB1; Log [Compound] (M) -7.14267): 12.0521 | Gi1 hCB1 response (hCB1; Log [Compound] (M) -7.55284): 14.8945 | Gi1 hCB1 response (hCB1; Log [Compound] (M) -8): -25.6382 | Gi1 hCB1 response (hCB1; Log [Compound] (M) -8.22186): 0.1228 | Gi1 hCB1 response (hCB1; Log [Compound] (M) -8.39794): -3.727 | Gi1 hCB1 response (hCB1; Log [Compound] (M) -8.68787): -1.824 | Gi1 hCB1 response (hCB1; Log [Compound] (M) -9.15521): 3.279 | Gi1 hCB1 response (hCB1; Log [Compound] (M) -9.61989): -3.167 | Gi1 hCB1 response (hCB1; Log [Compound] (M) -10.0969): -2.16 | Gi1 hCB1 response (hCB1; Log [Compound] (M) -10.5529): 5.92 | Gi1 hCB1 response (hCB1; Log [Compound] (M) -11.0177): -6.256 | Gi1 hCB1 response (hCB1; Log [Compound] (M) -11.4949): -0.9291 | Gi1 hCB1 response (hCB1; Log [Compound] (M) -11.9208): -13.4627 | Gi1 hCB1 response (hCB1; Log [Compound] (M) -12.3979): -16.5961 | Gi1 hCB1 response (hCB1; Log [Compound] (M) -12.8861): 7.553 | Gi1 hCB1 response (hCB1; Log [Compound] (M) -13, individual replicate values): -19.5729 and -62.4781 | Gi1 hCB1 (hCB1; Log [Compound] (M) -4.22186): -9.361 | GoB hCB1 (hCB1; Log [Compound] (M) -4.22186): -31.4993 | Gi1 hCB1 (hCB1; Log [Compound] (M) -4.63927): -10.6872 | GoB hCB1 (hCB1; Log [Compound] (M) -4.63927): -34.2867 | Gi1 hCB1 (hCB1; Log [Compound] (M) -5.05788): -11.9051 | GoB hCB1 (hCB1; Log [Compound] (M) -5.05788): -28.1184 | Gi1 hCB1 (hCB1; Log [Compound] (M) -5.47381): -11.4426 | GoB hCB1 (hCB1; Log [Compound] (M) -5.47381): -23.1191 | Gi1 hCB1 (hCB1; Log [Compound] (M) -5.89285): -8.945 | GoB hCB1 (hCB1; Log [Compound] (M) -5.89285): -20.2417 | Gi1 hCB1 (hCB1; Log [Compound] (M) -6.31878): -6.247 | GoB hCB1 (hCB1; Log [Compound] (M) -6.31878): -13.1203 | Gi1 hCB1 (hCB1; Log [Compound] (M) -6.72585): -1.113 | GoB hCB1 (hCB1; Log [Compound] (M) -6.72585): -7.186 | Gi1 hCB1 (hCB1; Log [Compound] (M) -7.14267): -0.5276 | GoB hCB1 (hCB1; Log [Compound] (M) -7.14267): -1.323 | Gi1 hCB1 (hCB1; Log [Compound] (M) -7.55284): 1.23 | GoB hCB1 (hCB1; Log [Compound] (M) -7.55284): 0.2953 | Gi1 hCB1 (hCB1; Log [Compound] (M) -8): 1.677 | GoB hCB1 (hCB1; Log [Compound] (M) -8): -4.362 | Gi1 hCB1 (hCB1; Log [Compound] (M) -8.22186): 1.6461 | GoB hCB1 (hCB1; Log [Compound] (M) -8.22186): -2.654 | Gi1 hCB1 (hCB1; Log [Compound] (M) -8.39794): 0.5515 | GoB hCB1 (hCB1; Log [Compound] (M) -8.39794): -2.906 | Gi1 hCB1 (hCB1; Log [Compound] (M) -8.68787): 1.245 | GoB hCB1 (hCB1; Log [Compound] (M) -8.68787): -4.668 | Gi1 hCB1 (hCB1; Log [Compound] (M) -9.15521): 1.045 | GoB hCB1 (hCB1; Log [Compound] (M) -9.15521): -5.747 | Gi1 hCB1 (hCB1; Log [Compound] (M) -9.61989): -0.04972 | GoB hCB1 (hCB1; Log [Compound] (M) -9.61989): -2.816 | Gi1 hCB1 (hCB1; Log [Compound] (M) -10.0969): 2.864 | GoB hCB1 (hCB1; Log [Compound] (M) -10.0969): -1.485 | Gi1 hCB1 (hCB1; Log [Compound] (M) -10.5529): 1.384 | GoB hCB1 (hCB1; Log [Compound] (M) -10.5529): -2.978 | Gi1 hCB1 (hCB1; Log [Compound] (M) -11.0177): -0.3581 | GoB hCB1 (hCB1; Log [Compound] (M) -11.0177): 1.41 | Gi1 hCB1 (hCB1; Log [Compound] (M) -11.4949): 1.415 | GoB hCB1 (hCB1; Log [Compound] (M) -11.4949): -0.7478 | Gi1 hCB1 (hCB1; Log [Compound] (M) -11.9208): 2.802 | GoB hCB1 (hCB1; Log [Compound] (M) -11.9208): 0.3312 | Gi1 hCB1 (hCB1; Log [Compound] (M) -12.3979): 0.1044 | GoB hCB1 (hCB1; Log [Compound] (M) -12.3979): -0.9456 | Gi1 hCB1 (hCB1; Log [Compound] (M) -12.8861): -0.6818 | GoB hCB1 (hCB1; Log [Compound] (M) -12.8861): 1.626 | Gi1 hCB1 (hCB1; Log [Compound] (M) -13): 2.001 and 0.07361 | GoB hCB1 (hCB1; Log [Compound] (M) -13): 1.176 and -0.1363
